The text below walks through data of US9029325B2, “Amylin analogues and pharmaceutical compositions thereof” (Novo Nordisk A/S, priority 2011, dated 2015).

The experiment is described as follows: Assay (I) efficacy testing on appetite (food intake), ad libitum fed rat model. The class given is in vivo, Sprague Dawley (SD) rats. The source says:
Sprague Dawley (SD) rats from Taconic Europe, Denmark are used for the experiments. The rats have a body weight 200-250 g at the start of experiment. The rats arrive at least 10-14 days before start of experiment to allow acclimatization to experimental settings. During this period the animals are handled at least 2 times. After arrival rats are housed individually for one week in a reversed light/dark phase (meaning that lights are off during daytime and on during nighttime) […]. Since rats are normally active and eat their major part of their daily food intake during the dark period, rats are dosed in the morning right before lights are turned off. This set-up results in the lowest data variation and highst test sensitivity. The experiment is conducted in the rats' home cages and rats have free access to food and water througout the acclimatization period and the experiment period. Each dose of derivative is tested in a group of 5-8 rats. A vehicle group of 6-8 rats is included in each set of testing. Rats are dosed once according to body weight with a 0.01-3 mg/kg solution administered intraperitoneally (ip), orally (po) or subcutaneously (sc). The time of dosing is recorded for each group. After dosing, the rats are returned to their home cages, where they then have access to food and water. The food consumption is recorded individually continuously by on-line registration or manually every hour for 7 hours, and then after 24 h and sometimes 48 h. At the end of the experimental session, the animals are euthanised.
The individual data are recorded in Microsoft excel sheets. Outliers are excluded after applying the Grubbs statistical evaluation test for outliers, and the result is presented graphically using the GraphPad Prism program.

Starred links: 1 amine or outer side, 2 acyl side, 3 side chain; linkers in the order of their positions; H or OH if unused. Positions of bridges follow the written chain, without caps; N, C: chain ends. Residues, ends and D or L forms follow the SMILES beside them. *: point of attachment. C20 diacid = O=C(O)CCCCCCCCCCCCCCCCCCC(=O)*; C18 diacid = O=C(O)CCCCCCCCCCCCCCCCC(=O)*; γGlu = O=C(O)[C@H](CCC(=O)[*:2])N[*:1]

Regarding `CC[C@H](C)[C@H](NC(=O)[C@@H]1CCCN1C(=O)CNC(=O)[C@H](Cc1ccccc1)NC(=O)[C@H](CC(N)=O)NC(=O)[C@H](CC(N)=O)NC(=O)[C@H](CO)NC(=O)[C@H](CO)NC(=O)[C@H](Cc1c[nH]cn1)NC(=O)[C@H](CCCNC(=N)N)NC(=O)[C@H](CC(C)C)NC(=O)[C@H](Cc1ccccc1)NC(=O)[C@H](CCC(=O)O)NC(=O)[C@H](C)NC(=O)[C@H](CC(C)C)NC(=O)[C@H](CCCNC(=N)N)NC(=O)[C@H](CCC(N)=O)NC(=O)[C@@H](NC(=O)[C@H](C)NC(=O)[C@@H]1CSSC[C@H](NC(=O)[C@H](CCCCN)NC(=O)CC[C@H](NC(=O)CCCCCCCCCCCCCCCCCCC(=O)O)C(=O)O)C(=O)N[C@@H](CC(N)=O)C(=O)N[C@@H]([C@@H](C)O)C(=O)N[C@@H](C)C(=O)N[C@@H]([C@@H](C)O)C(=O)N1)[C@@H](C)O)C(=O)N[C@@H](CC(C)C)C(=O)N1CCC[C@H]1C(=O)N1CCC[C@H]1C(=O)N[C@H](C(=O)N[C@@H](CC(N)=O)C(=O)N[C@H](C(=O)NCC(=O)N[C@@H](CO)C(=O)N[C@@H](Cc1c[nH]cn1)C(=O)N[C@H](C(=O)N[C@@H](Cc1ccc(O)cc1)C(N)=O)[C@@H](C)O)C(C)C)[C@@H](C)O` [Example 57, N-alpha-[(S)-4-Carboxy-4-(19-carboxynonadecanoylamino)butyryl]-[Glu14,Arg17,His35]-pramlintide] ({C20 diacid-γGlu}-KCNTATCATQRLAEFLRHSSNNFGPILPPTNVGSHTY-NH2; disulfide 2-7 (inferred); C-terminus assumed), the “Food intake reduction 0-24 h 3 nmol/kg (%)” value (0-24 h) was 17%. Also, the “Food intake reduction 24-48 h 3 nmol/kg (%)” value (24-48 h) came to 0%.
As to `CC[C@H](C)[C@H](NC(=O)[C@@H]1CCCN1C(=O)CNC(=O)[C@H](Cc1ccccc1)NC(=O)[C@H](CC(N)=O)NC(=O)[C@H](CC(N)=O)NC(=O)[C@H](CO)NC(=O)[C@H](CO)NC(=O)[C@H](Cc1c[nH]cn1)NC(=O)[C@H](Cc1c[nH]cn1)NC(=O)[C@H](CC(C)C)NC(=O)[C@H](Cc1ccccc1)NC(=O)[C@H](CCC(=O)O)NC(=O)[C@H](C)NC(=O)[C@H](CC(C)C)NC(=O)[C@H](CCCNC(=N)N)NC(=O)[C@H](CCC(N)=O)NC(=O)[C@@H](NC(=O)[C@H](C)NC(=O)[C@@H]1CSSC[C@H](NC(=O)[C@H](CCCCN)NC(=O)CC[C@H](NC(=O)CCCCCCCCCCCCCCCCC(=O)O)C(=O)O)C(=O)N[C@@H](CC(N)=O)C(=O)N[C@@H]([C@@H](C)O)C(=O)N[C@@H](C)C(=O)N[C@@H]([C@@H](C)O)C(=O)N1)[C@@H](C)O)C(=O)N[C@@H](CC(C)C)C(=O)N1CCC[C@H]1C(=O)N1CCC[C@H]1C(=O)N[C@H](C(=O)N[C@@H](CC(N)=O)C(=O)N[C@H](C(=O)NCC(=O)N[C@@H](CO)C(=O)N[C@@H](Cc1c[nH]cn1)C(=O)N[C@H](C(=O)N[C@@H](Cc1ccc(O)cc1)C(N)=O)[C@@H](C)O)C(C)C)[C@@H](C)O` [Example 59, N-alpha-[(S)-4-Carboxy-4-(17-carboxyheptadecanoylamino)butyryl]-[Glu14,His17,His 35]-pramlintide] ({C18 diacid-γGlu}-KCNTATCATQRLAEFLHHSSNNFGPILPPTNVGSHTY-NH2; disulfide 2-7 (inferred); C-terminus assumed), the “Food intake reduction 0-24 h 3 nmol/kg (%)” value (0-24 h) is recorded as 59%. Moreover, the “Food intake reduction 24-48 h 3 nmol/kg (%)” value (24-48 h) was determined as 27%.
On to `CC[C@H](C)[C@H](NC(=O)[C@@H]1CCCN1C(=O)CNC(=O)[C@H](Cc1ccccc1)NC(=O)[C@H](CC(N)=O)NC(=O)[C@H](CC(N)=O)NC(=O)[C@H](CO)NC(=O)[C@H](CO)NC(=O)[C@H](Cc1c[nH]cn1)NC(=O)[C@H](Cc1c[nH]cn1)NC(=O)[C@H](CC(C)C)NC(=O)[C@H](Cc1ccccc1)NC(=O)[C@H](CCC(=O)O)NC(=O)[C@H](C)NC(=O)[C@H](CC(C)C)NC(=O)[C@H](CCCNC(=N)N)NC(=O)[C@H](CCC(N)=O)NC(=O)[C@@H](NC(=O)[C@H](C)NC(=O)[C@@H]1CSSC[C@H](NC(=O)[C@H](Cc2c[nH]cn2)NC(=O)CC[C@H](NC(=O)CCCCCCCCCCCCCCCCCCC(=O)O)C(=O)O)C(=O)N[C@@H](CC(N)=O)C(=O)N[C@@H]([C@@H](C)O)C(=O)N[C@@H](C)C(=O)N[C@@H]([C@@H](C)O)C(=O)N1)[C@@H](C)O)C(=O)N[C@@H](CC(C)C)C(=O)N1CCC[C@H]1C(=O)N1CCC[C@H]1C(=O)N[C@H](C(=O)N[C@@H](CC(N)=O)C(=O)N[C@H](C(=O)NCC(=O)N[C@@H](CO)C(=O)N[C@@H](CC(N)=O)C(=O)N[C@H](C(=O)N1CCC[C@H]1C(N)=O)[C@@H](C)O)C(C)C)[C@@H](C)O` [Example 84, N-alpha-[(S)-4-Carboxy-4-(19-carboxynonadecanoylamino)butyryl]-[His1, Glu14, His17, Pro37]-pramlintide] ({C20 diacid-γGlu}-HCNTATCATQRLAEFLHHSSNNFGPILPPTNVGSNTP-NH2; disulfide 2-7), for which the “Food intake reduction 0-24 h 3 nmol/kg (%)” value (0-24 h) worked out at 68%. Besides, the “Food intake reduction 24-48 h 3 nmol/kg (%)” value (24-48 h) came to 67%.
With `CC[C@H](C)[C@H](NC(=O)[C@@H]1CCCN1C(=O)CNC(=O)[C@H](Cc1ccccc1)NC(=O)[C@H](CC(N)=O)NC(=O)[C@H](CC(N)=O)NC(=O)[C@H](CO)NC(=O)[C@H](CO)NC(=O)[C@H](CCCNC(=N)N)NC(=O)[C@H](Cc1c[nH]cn1)NC(=O)[C@H](CC(C)C)NC(=O)[C@H](Cc1ccccc1)NC(=O)[C@H](CCC(=O)O)NC(=O)[C@H](C)NC(=O)[C@H](CC(C)C)NC(=O)[C@H](CCCNC(=N)N)NC(=O)[C@H](CCC(N)=O)NC(=O)[C@@H](NC(=O)[C@H](C)NC(=O)[C@@H]1CSSC[C@H](NC(=O)[C@H](Cc2c[nH]cn2)NC(=O)CC[C@H](NC(=O)CCCCCCCCCCCCCCCCCCC(=O)O)C(=O)O)C(=O)N[C@@H](CC(N)=O)C(=O)N[C@@H]([C@@H](C)O)C(=O)N[C@@H](C)C(=O)N[C@@H]([C@@H](C)O)C(=O)N1)[C@@H](C)O)C(=O)N[C@@H](CC(C)C)C(=O)N1CCC[C@H]1C(=O)N1CCC[C@H]1C(=O)N[C@H](C(=O)N[C@@H](CC(N)=O)C(=O)N[C@H](C(=O)NCC(=O)N[C@@H](CO)C(=O)N[C@@H](CC(N)=O)C(=O)N[C@H](C(=O)N[C@@H](Cc1ccc(O)cc1)C(N)=O)[C@@H](C)O)C(C)C)[C@@H](C)O` [compound 1] ({C20 diacid-γGlu}-HCNTATCATQRLAEFLHRSSNNFGPILPPTNVGSNTY-NH2; disulfide 2-7), where the note is “0-24 h”, the “Food intake reduction 0-24 h 3 nmol/kg (%)” value is listed as 50%. For the same molecule, the “Food intake reduction 24-48 h 3 nmol/kg (%)” value (24-48 h) came out at 45%. The “Food intake reduction 0-24 h 30 nmol/kg (%)” value (30 nmol/kg, 0-24 h) was 93%. Besides, the “Food intake reduction 24-48 h 30 nmol/kg (%)” value (30 nmol/kg, 24-48 h) was 92%.
